From US9994515B2, “Aryl naphthyl methanone oxime(s) and process for preparation thereof” (Council of Scientific & Industrial Research, priority 2013, dated 2018)
Structures can show the parent of a compound that is named as a salt.

Experiments:
Settings in all cases: Table 1, MTT assay after 48 h treatment
K562 = test: MTT cytotoxicity assay in K562 cells; assay type: cell-based
HL60 = test: MTT cytotoxicity assay in HL-60 cells; assay type: cell-based
NIH3T3 = test: MTT cytotoxicity assay in NIH3T3 fibroblasts; assay type: cell-based, mouse
Description: To consider a molecule as a candidate compound in cancer drug therapy, the test compound must have specific cytotoxicity towards the cancer cells without affecting normal cell growth. Therefore, all active compounds were assessed for toxicity in non-cancer cell-lines: mouse fibroblast cell line (NIH3T3) and monkey kidney epithelial cells (Vero). […] Therefore, based on safety index ([…]), 5d [Centans; based on IUPAC name prefixed with Central Drug Research Institute's signature (Cent)] was selected as a lead compound.

| SMILES | IC50 (K562; Homo sapiens, K562, 48 h) | IC50 (HL60; Homo sapiens, HL-60, 48 h) | IC50 (NIH3T3; Mus musculus, NIH3T3, 48 h) | other results |
| --- | --- | --- | --- | --- |
| CSc1ccc(/C(=N/OCCN(C(C)C)C(C)C)c2cccc3ccccc23)cc1 [Compound 5e, (4-(methylthio)phenyl)(naphthalen-1-yl)methanone O-2-(diisopropylamino)ethyl oxime] | 7 µM | 14 µM | 16 µM |  |
| CSc1ccc(/C(=N/OC(C)CN(C)C)c2cccc3ccccc23)cc1 (stereo not drawn) [Compound 5g, (4-(methylthio)phenyl)(naphthalen-1-yl)methanone O-1-(dimethylamino)propan-2-yl oxime oxalate] | > 50 µM | > 50 µM | > 50 µM |  |
| CSc1ccc(/C(=N/OCCN2CCCCCC2)c2cccc3ccccc23)cc1 [Compound 5h, (4-(methylthio)phenyl)(naphthalen-1-yl)methanone O-2-(azepan-1-yl)ethyl oxime oxalate] | > 50 µM | > 50 µM | > 50 µM |  |
| CCN(CC)CCO/N=C(/c1ccc(SC)cc1)c1cccc2ccccc12 [Compound 5i, (4-(methylthio)phenyl)(naphthalen-1-yl)methanone O-2-(diethylamino)ethyl oxime citrate] |  |  |  | IC50 (K562; citrate): > 30 µM; IC50 (HL60; citrate): > 50 µM; IC50 (NIH3T3; citrate): 40 µM |
| CCN(CC)CCO/N=C(/c1ccc(SC)cc1)c1cccc2ccccc12 [Compound 5k, (4-(methylthio)phenyl)(naphthalen-1-yl)methanone O-2-(diethylamino)ethyl oxime tartrate] |  |  |  | IC50 (K562; tartrate): > 50 µM; IC50 (HL60; tartrate): > 50 µM; IC50 (NIH3T3; tartrate): > 50 µM |
| CCN(CC)CCO/N=C(/c1ccc(SC)cc1)c1cccc2ccccc12 [Compound 5l, (4-(methylthio)phenyl)(naphthalen-1-yl)methanone O-2-(diethylamino)ethyl oxime] |  |  |  | IC50 (K562): > 50 µM; IC50 (HL60): > 50 µM; IC50 (NIH3T3): > 50 µM |
| CCOC(=O)CO/N=C(/c1ccc(SC)cc1)c1cccc2ccccc12 [Compound 5p, Ethyl 2-((4-(methylthio)phenyl) (naphthalen-1-yl)methyleneaminooxy) acetate] | > 50 µM | 15 µM | > 50 µM |  |
| CCN(CC)C(=O)CO/N=C(/c1ccc(SC)cc1)c1cccc2ccccc12 [Compound 5q, N,N-diethyl-2-((4-(methylthio)phenyl) (naphthalen-1-yl)methyleneaminooxy)acetamide] | > 50 µM | > 50 µM | > 50 µM |  |
| COc1ccc(/C(=N/OC(C)CN(C)C)c2cccc3ccccc23)cc1 (stereo not drawn) [Compound 6f, (4-methoxyphenyl)(naphthalen-1-yl)methanone O-1-(dimethylamino)propan-2-yl oxime oxalate] | > 50 µM | > 50 µM | > 50 µM |  |
| COc1ccc(/C(=N/OCCN2CCCCCC2)c2cccc3ccccc23)cc1 [Compound 6g, (4-methoxyphenyl)(naphthalen-1-yl)methanone O-2-(azepan-1-yl)ethyl oxime oxalate] | 6.66 µM | > 50 µM | 16 µM |  |
| COc1ccc(/C(=N/OCCN2CCOCC2)c2cccc3ccccc23)cc1 [Compound 6h, (4-methoxyphenyl)(naphthalen-1-yl)methanone O-2-morpholinoethyl oxime] | 19 µM | > 50 µM | 26 µM |  |
| CCCCN(C)CCCO/N=C(/c1ccc(SC)cc1)c1cccc2ccccc12 [Compound 7d, (4-(methylthio)phenyl)(naphthalen-1-yl)methanone O-3-(butyl(methyl)amino)propyl oxime] | > 50 µM | 13 µM | > 50 µM |  |
| CSc1ccc(/C(=N/OCCCCNCCc2ccccc2)c2cccc3ccccc23)cc1 [Compound 8c, (4-(methylthio)phenyl)(naphthalen-1-yl)methanone O-4-(phenethylamino)butyl oxime] | > 30 µM | > 50 µM | > 50 µM |  |
| CCN(CCCCO/N=C(/c1ccc(SC)cc1)c1cccc2ccccc12)Cc1ccccc1 [Compound 8d, (4-(methylthio)phenyl)(naphthalen-1-yl) methanone O-4-(benzyl(ethyl)amino)butyl oxime] | 16.3 µM | > 50 µM | > 50 µM |  |
